{"source": "patent US5741687A", "about": "(Toyo Boseki Kaubshiki Kaisha, priority 1992, dated 1998)"}
{"test_system": "sorbitol oxidase", "test": "Sorbitol oxidase activity determined by H2O2 produced, with various monosaccharides and derivatives as substrate", "type": "biochemical, Xanthomonas maltophilia TE3539", "set-up": "concentration or dose not given beside the values", "settings": "substrate specificity; enzyme activity with respect to D-sorbitol set at 100", "experimental": "First, the following reaction mixture is prepared.\nThe enzyme activity was determined in the case where various monosaccharides and derivatives thereof were used as a substrate. The value of enzyme activity with respect to D-sorbitol was set at 100.", "units": {"Relative activity (%)": "%"}}
{"smiles": "O=C(CO)[C@@H](O)[C@H](O)[C@@H](O)CO", "note": "[L-sorbose]", "Relative activity (%)": 10.60}
{"smiles": "O[C@H]1[C@H](O)[C@@H](O)[C@H](O)[C@@H](O)[C@H]1O", "note": "[Inositol]", "Relative activity (%)": 0.40}
{"smiles": "O=C(CO)[C@@H](O)[C@H](O)[C@H](O)CO", "note": "[D-fructose]", "Relative activity (%)": 2.88}
{"smiles": "OCC(O)CO", "note": "[Glycerol]", "Relative activity (%)": 3.50}
{"smiles": "OC[C@@H](O)[C@@H](O)[C@H](O)[C@H](O)CO", "note": "[D-mannitol]", "Relative activity (%)": 86.60}
{"smiles": "OC[C@@H](O)[C@@H](O)[C@H](O)[C@@H](O)CO", "note": "[D-sorbitol]", "Relative activity (%)": 100.00}
{"smiles": "O=C[C@@H](O)[C@@H](O)[C@H](O)[C@H](O)CO", "note": "[D-mannose]", "Relative activity (%)": 1.01}
{"smiles": "OC[C@H]1O[C@H](O[C@H]2[C@H](O)[C@@H](O)C(O)O[C@@H]2CO)[C@H](O)[C@@H](O)[C@@H]1O", "note": "(mixture of isomers) [Maltose]", "Relative activity (%)": 0.00}
{"smiles": "OC[C@@H](O)C(O)[C@H](O)CO", "note": "[D-arabitol]", "Relative activity (%)": 23.20}
{"smiles": "Cl.N[C@H]1C(O)O[C@H](CO)[C@@H](O)[C@@H]1O", "note": "(stereo partly drawn) [D-glucosamine hydrochloride]", "Relative activity (%)": 0.00}
{"smiles": "O=C[C@H](O)[C@@H](O)[C@H](O)[C@H](O)CO", "note": "[D-glucose]", "Relative activity (%)": 0.54}
{"smiles": "O=C[C@H](O)[C@@H](O)[C@@H](O)[C@H](O)CO", "note": "[D-galactose]", "Relative activity (%)": 0.42}
{"smiles": "OC[C@@H](O)[C@H](O)[C@@H](O)CO", "note": "[D-xylitol]", "Relative activity (%)": 89.90}
{"test_system": "sorbitol oxidase", "test": "Sorbitol oxidase activity determined by H2O2 produced, with various monosaccharides and derivatives as substrate", "type": "biochemical, Xanthomonas maltophilia TE3539", "settings": "with respect to sorbitol", "units": {"Km": "µM"}}
{"smiles": "OC[C@@H](O)[C@@H](O)[C@H](O)[C@@H](O)CO", "note": "[D-sorbitol]", "Km": 600}
